Source: patent US12357617B2, “Discovery of novel anti-infectives for gram negative pathogens” (priority 2018, dated 2025)
In brackets after ≈: the same amount, converted by molar mass. Entries after “also recorded” stand apart in the source; their conditions may differ. Like-named read-outs stand apart in the source and are kept apart here.

How the values were obtained:
Bt E264 = format: cell-based, Burkholderia thailandensis
Bt [1] = assay: microbe, parasite or virus in culture; format: cell-based, Burkholderia thailandensis; details: for MIC: Burkholderia thailandensis, read-out: in vitro MIC
E. coli DNA gyrase = biological target: T1, E. coli DNA gyrase (Escherichia coli, UniProt P0AES4+P0AES6); assay: E. coli DNA gyrase negative supercoiling assay; format: biochemical; details: 100 uM or 500 uM, agarose gel
T1 construct: purchased New England Biolabs

E. coli 25922 = assay: MIC by broth microdilution, E. coli 25922; format: cell-based, Escherichia coli; details: for MIC: Escherichia coli, E. coli 25922, broth microdilution
[2] = tested on: P. aueruginosa ATCC 27853; assay: MIC by broth microdilution, P. aeruginosa ATCC 27853; format: cell-based, Pseudomonas aeruginosa; details: for MIC: Pseudomonas aeruginosa, ATCC27853
[3] = tested on: P. aeruginosa resistant isolate 1; assay: MIC by broth microdilution, P. aeruginosa resistant isolate 1; format: cell-based; details: Pseudomonas aeruginosa
[4] = tested on: P. aeruginosa resistant isolate 2; assay: MIC by broth microdilution, P. aeruginosa resistant isolate 2; format: cell-based; details: Pseudomonas aeruginosa
S. aureus ATCC 29213 = assay: MIC by broth microdilution, S. aureus ATCC 29213; format: cell-based; details: Staphylococcus aureus, ATCC29213
[5] = tested on: S. aureus resistant isolate 1; assay: MIC by broth microdilution, S. aureus resistant isolate 1; format: cell-based; details: Staphylococcus aureus
[6] = tested on: S. aureus resistant isolate 2; assay: MIC by broth microdilution, S. aureus resistant isolate 2; format: cell-based; details: Staphylococcus aureus
Bp82 (BpeEF-OprC-) = assay: microbe, parasite or virus in culture; format: cell-based; details: Burkholderia pseudomallei
Bp82.270 (BpeEF-OprC+) = assay: microbe, parasite or virus in culture; format: cell-based; details: Burkholderia pseudomallei
Bp82.284 (BpeEF-OprC+) = assay: microbe, parasite or virus in culture; format: cell-based; details: Burkholderia pseudomallei
Bp82.285 (BpeEF-OprC+) = assay: microbe, parasite or virus in culture; format: cell-based; details: Burkholderia pseudomallei
Bp 1026b [7] = format: in vivo, BALB/c mice
Bp 1026b [8] = format: cell-based, Burkholderia pseudomallei
Bm 23344 = format: cell-based, Burkholderia mallei
Bp MSHR305 = format: cell-based, Burkholderia pseudomallei
Bt [9] = format: cell-based, Burkholderia thailandensis
[10] = tested on: E. coli resistant isolate 1; assay: MIC by broth microdilution, E. coli resistant isolate 1; format: cell-based; details: Escherichia coli; E. coli resistant isolate 1 (Cip-resistant clinical isolate)
[11] = tested on: E. coli resistant isolate 2; assay: MIC by broth microdilution, E. coli resistant isolate 2; format: cell-based; details: Escherichia coli; E. coli resistant isolate 2 (Cip-resistant clinical isolate)
HEK293 cells = assay: CellTiter-Glo cell viability (cellular toxicity) assay; details: for TD = toxic dose (dose at which HEK293 cell growth is significantly affected): Celltitre-Glo, HEK293 cells; for effect on HEK293 cell viability: concentrations 10-fold higher than the IC100, ATP-depletion assay
[12] = tested on: T6SS-5 secretion activity (Hcp), Bt E264; format: cell-based, Burkholderia thailandensis
[13] = tested on: T6SS-5 secretion activity (Hcp), Bp 1026b; format: cell-based, Burkholderia pseudomallei
[14] = tested on: virulence loci (virG, bsaM, bimA, vgrG) of Bt E264; format: cell-based, Burkholderia thailandensis
Bt [15] = format: cell-based, Burkholderia thailandensis; remark: listed apart in the source
[16] = reference 37; cited from earlier work

T1 sequence (P0AES4 whole entry, one chain of several): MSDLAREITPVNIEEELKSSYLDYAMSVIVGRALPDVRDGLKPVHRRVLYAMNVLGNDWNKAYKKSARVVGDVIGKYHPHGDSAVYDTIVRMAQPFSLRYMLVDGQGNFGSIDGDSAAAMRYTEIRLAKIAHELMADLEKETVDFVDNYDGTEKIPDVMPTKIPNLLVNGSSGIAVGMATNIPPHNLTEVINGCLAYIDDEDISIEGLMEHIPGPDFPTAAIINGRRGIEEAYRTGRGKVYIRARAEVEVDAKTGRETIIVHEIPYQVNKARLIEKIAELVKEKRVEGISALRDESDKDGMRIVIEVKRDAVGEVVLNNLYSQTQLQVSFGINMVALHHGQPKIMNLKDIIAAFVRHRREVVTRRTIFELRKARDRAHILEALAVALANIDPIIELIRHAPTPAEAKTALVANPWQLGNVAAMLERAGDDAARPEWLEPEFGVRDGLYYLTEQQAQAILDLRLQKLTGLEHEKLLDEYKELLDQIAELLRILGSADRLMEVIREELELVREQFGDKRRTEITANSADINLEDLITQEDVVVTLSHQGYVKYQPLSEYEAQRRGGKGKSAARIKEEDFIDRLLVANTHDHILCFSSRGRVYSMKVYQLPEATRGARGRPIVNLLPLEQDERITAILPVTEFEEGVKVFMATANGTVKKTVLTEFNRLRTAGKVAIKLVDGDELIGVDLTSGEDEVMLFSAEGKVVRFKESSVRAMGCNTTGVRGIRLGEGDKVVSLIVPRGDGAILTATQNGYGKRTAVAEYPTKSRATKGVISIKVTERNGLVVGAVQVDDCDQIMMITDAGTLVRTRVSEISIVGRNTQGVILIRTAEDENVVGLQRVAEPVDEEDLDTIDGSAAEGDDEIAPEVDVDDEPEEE

Compound: O=c1[nH]c(=O)n([C@@H]2O[C@H](CO)[C@@H](O)[C@H]2O)cc1F [F-UR, Fluorouridine]
- plaque formation by Bt (Bt E264): minimally inhibitory; also recorded: fully inhibitory

Compound: COc1cc(Cc2cnc(N)nc2N)cc(OC)c1OC [trimethoprim]
- inhibition of plaque formation by Bt E264 (screen and validation) (Bt E264): inhibitors

Compound: O=C(O)c1cn(C2CC2)c2cc(N3CCNCC3)c(F)cc2c1=O [Cip, ciprofloxacin]
- MIC (Bt [1]): 1.3 µg/mL (≈ 3.92 µM)
- negative supercoiling activity of E. coli DNA gyrase (E. coli DNA gyrase): inhibits the negative supercoiling activity
- MIC (E. coli 25922): 2 µg/mL (≈ 6.04 µM)
- MIC [2]: 4 µg/mL (≈ 12.1 µM)
- MIC [3]: > 7 µg/mL
- MIC [4]: > 7 µg/mL
- MIC (S. aureus ATCC 29213): > 7 µg/mL
- MIC [5]: > 7 µg/mL
- MIC [6]: > 7 µg/mL
- MIC (Bp82 (BpeEF-OprC-)): 1 µg/mL (≈ 3.02 µM)
- MIC (Bp82.270 (BpeEF-OprC+)): 16 µg/mL (≈ 48.3 µM)
- MIC (Bp82.284 (BpeEF-OprC+)): 16 µg/mL (≈ 48.3 µM)
- MIC (Bp82.285 (BpeEF-OprC+)): 16 to 32 µg/mL (≈ 48.3 to 96.6 µM)

Compound: O=c1[nH]c(=O)n([C@H]2C[C@H](O)[C@@H](CO)O2)cc1F [F-UdR, fluorodeoxyuridine]
- plaque formation by Bt (Bt E264): lack of inhibitory activity

Compound: CC(C)(O/N=C(\C(=O)N[C@@H]1C(=O)N2C(C(=O)[O-])=C(C[n+]3ccccc3)CS[C@H]12)c1csc(N)n1)C(=O)O [ceftazidime]
- time by which all animals succumbed to infection (Bp 1026b [7]; mouse, in vivo): by five days

Compound: CCn1cc(C(=O)O)c(=O)c2cc(F)c(N3CCOCC3)cc21 [BFX, 1-Ethyl-6-fluoro-7-(4-morpholinyl)-4-oxo-1,4-dihydro-3-quinolinecarboxylic acid]
- ED = effective dose (IC100) against Bp (Bp 1026b [8]): 0.1 µM
- inhibition of plaque formation / intercellular spread by Bp 1026b (Bp 1026b [8]): near-complete inhibition
- inhibition of plaque formation by Bp 1026b (validation) (Bp 1026b [8]): consistently inhibit plaque formation
- fold lower concentration than Cip at which plaque formation by Bt is prevented (Bt E264): 8 fold
- inhibition of plaque formation / intercellular spread by Bt E264 (Bt E264): near-complete inhibition
- inhibition of plaque formation by Bt E264 (screen and validation) (Bt E264): consistently inhibit plaque formation
- inhibition of plaque formation by Bm 23344 (validation) (Bm 23344): consistently inhibit plaque formation
- plaque formation by Bp MSHR305 (Bp MSHR305; 5 μM): effective at ablating plaque formation
- intracellular replication of Bt (Bt [9]): inhibits intracellular replication
- dose needed to inhibit growth in laboratory medium (Bt [1]): 5 µM
- in vitro growth of Bt (Bt [1]): does not inhibit in vitro growth
- MIC (Bt [1]): 2.6 µg/mL (≈ 8.12 µM)
- negative supercoiling activity of E. coli DNA gyrase (E. coli DNA gyrase): inhibits the negative supercoiling activity
- growth of E. coli ATCC 25922 (in words) (E. coli 25922): inhibitory for the growth
- MIC (E. coli 25922): 4 µg/mL (≈ 12.5 µM)
- MIC [10]: > 7 µg/mL
- MIC [11]: > 7 µg/mL
- growth of Pseudomonas aeruginosa ATCC 27853 (in words) [2]: inhibitory for the growth
- MIC [2]: 4 µg/mL (≈ 12.5 µM)
- MIC [3]: > 7 µg/mL
- MIC [4]: > 7 µg/mL
- MIC (S. aureus ATCC 29213): > 7 µg/mL
- MIC [5]: > 7 µg/mL
- MIC [6]: > 7 µg/mL
- MIC (Bp82 (BpeEF-OprC-)): 2 µg/mL (≈ 6.24 µM)
- MIC (Bp82.270 (BpeEF-OprC+)): 32 µg/mL (≈ 99.9 µM)
- MIC (Bp82.284 (BpeEF-OprC+)): 32 µg/mL (≈ 99.9 µM)
- MIC (Bp82.285 (BpeEF-OprC+)): 32 µg/mL (≈ 99.9 µM)
- bacterial loads in liver and spleen compared to lung of surviving mice (Bp 1026b [7]; 10 days): low or undetectable bacterial loads
- bacterial loads in lungs, livers, and spleens (Bp 1026b [7]; mouse, in vivo): decreased relative to placebo and ceftazidime-treated controls
- histopathology: inflammation in pulmonary, hepatic, and splenic tissue (Bp 1026b [7]; mouse, in vivo): nearly undetectable inflammation
- overall efficacy compared to ceftazidime (Bp 1026b [7]; mouse, in vivo): superiority to ceftazidime
- mice surviving the entire study duration (10 days) (Bp 1026b [7]; n=8): 63%
- mice surviving to five days post-infection (Bp 1026b [7]; n=8): 100%
- TD = toxic dose (dose at which HEK293 cell growth is significantly affected) (HEK293 cells): >50 µM
- effect on HEK293 cell viability (HEK293 cells): no effect on cell viability

Compound: C[C@@H]1CC[C@H]2[C@@H](C)C(=O)O[C@@H]3O[C@@]4(C)CC[C@@H]1[C@]32OO4 [artemisinin]
- inhibition of plaque formation by Bm 23344 (validation) (Bm 23344): specific for Bm only

Compound: Nc1nc(=O)[nH]cc1F [5-FC, flucytosine]
- ED = effective dose (IC100) against Bp (Bp 1026b [8]): 3.1 µM
- inhibition of plaque formation by Bp 1026b (validation) (Bp 1026b [8]): activity against Bp and Bt
- plaque formation by Bp at increasing concentrations (Bp 1026b [8]): inhibits plaque formation
- inhibition of plaque formation by Bt E264 (screen and validation) (Bt E264): inhibitors; also recorded: activity against Bp and Bt
- intercellular spread by time of addition (Bt E264): robustly inhibits intercellular spread irrespective of time of addition
- plaque formation by Bt (Bt E264): completely inhibits plaque formation; also recorded: completely abolished plaque formation
- plaque formation by Bt at increasing concentrations (Bt E264): inhibits plaque formation
- inhibition of plaque formation by Bm 23344 (validation) (Bm 23344): ineffective
- plaque formation by Bp MSHR305 (Bp MSHR305): effective at ablating plaque formation
- decrease in peak intracellular bacterial numbers (Bt [9]): 3 fold
- intracellular replication of Bt (Bt [9]): delays and decreases, but does not eliminate
- intracellular replication of a fusion defective mutant (ΔvgrG) (Bt [9]): does not inhibit the intracellular replication
- in vitro growth of Bt (Bt [1]): does not significantly inhibit in vitro growth
- expression of Hcp (pellet) [12]: does not affect expression of Hcp
- secretion of Hcp (supernatant) [12]: inhibits secretion of Hcp
- expression of Hcp (pellet) [13]: does not affect expression of Hcp
- secretion of Hcp (supernatant) [13]: inhibits secretion of Hcp
- reduction in the expression of virG, bsaM, bimA, and vgrG [14]: ≤ 4 fold
- actin-mediated intracellular motility (bacteria with actin tails) (Bt [15]): does not inhibit actin-mediated intracellular motility
- bacterial loads in liver and spleen compared to lung of surviving mice (Bp 1026b [7]; mouse, in vivo): low or undetectable bacterial loads
- bacterial loads in lungs, livers, and spleens (Bp 1026b [7]; mouse, in vivo): decreased, although to a lesser extent
- histopathology: inflammation in pulmonary, hepatic, and splenic tissue (Bp 1026b [7]; mouse, in vivo): significantly reduced inflammation
- mice surviving the entire study duration (10 days) (Bp 1026b [7]; mouse, in vivo): 12%
- mice surviving to five days post-infection (Bp 1026b [7]; mouse, in vivo): 36.7%
- overall efficacy compared to ceftazidime (Bp 1026b [7]; mouse, in vivo): superiority to ceftazidime
- bioavailability [16]: good bioavailability
- TD = toxic dose (dose at which HEK293 cell growth is significantly affected) (HEK293 cells): >50 µM
- effect on HEK293 cell viability (HEK293 cells): no effect on cell viability

Compound: C[C@H]1COc2c(N3CCN(C)CC3)c(F)cc3c(=O)c(C(=O)O)cn1c23 [Levo, levofloxacin]
- MIC (E. coli 25922): 4 µg/mL (≈ 11.1 µM)
- MIC [10]: > 7 µg/mL
- MIC [11]: > 7 µg/mL
- MIC [2]: 5 µg/mL (≈ 13.8 µM)
- MIC [3]: > 7 µg/mL
- MIC [4]: > 7 µg/mL
- MIC (S. aureus ATCC 29213): > 7 µg/mL
- MIC [5]: > 7 µg/mL
- MIC [6]: > 7 µg/mL

Compound: CC[C@@]1([C@@H]2O[C@@H]([C@H]3O[C@@](O)(CO)[C@H](C)C[C@@H]3C)C[C@@H]2C)CC[C@H]([C@]2(C)CC[C@]3(C[C@H](O)[C@@H](C)[C@@H]([C@@H](C)[C@@H](OC)[C@H](C)C(=O)O)O3)O2)O1 [monensin]
- inhibition of plaque formation by Bm 23344 (validation) (Bm 23344): specific for Bm only

Compound: O=c1[nH]cc(F)c(=O)[nH]1 [5-FU, 5-fluorouracil]
- plaque formation by Bt (Bt E264; 25 μM): completely abolished plaque formation
